The results in this text go back to patent publication US20240252529A1, “ANTIVIRAL PHARMACEUTICAL COMPOSITION” (MARINOMED BIOTECH AG, priority 2020, published 2024).

Structures are written as SMILES.

For this test, the system named is SARS-CoV-2 spike glycoprotein pseudotyped lentivirus. The test is classed as cell-based. To be noted: comparative polymers at 100 μg/ml; FIG. 3.

`O=C[C@H](O)[C@@H](O)[C@@H](OS(=O)(=O)O)[C@H](O)CO` [Gal-4-SO4, galactose-4-sulphate]: the “protection of target cells against infection” value is reported as “only poorly effective”.
